Read-outs that look alike come from different tables or passages of the source.
Assays:
[1] = set-up: method as in Li P. et al., 2013; conditions: Sprague-Dawley rats, 16 g kg^-1; ref Li P. et al., 2013; cited from earlier work
[2] = Single-dose pharmacokinetics in rats (plasma, UHPLC/MS/MS); assay type: in vivo, Sprague Dawley rats; conditions: for MRT last: read-out: MRT0-t; for MRT inf: read-out: MRT0-∞
Excerpt: Sixty healthy adult Sprague Dawley rats (180-220 g, half male and female) were purchased from the Guangdong Medical Laboratory Animal Center (Guangzhou, Guangdong, China). Thirty Beagle dogs (10-14 kg, half male and female) were purchased from the […] Laboratory Animal Science & Technology Co., Ltd. (Gaoyao, Guangdong, China). All animals were housed under humanized conditions with free access to food and water, and acclimated to the living conditions for at least one week prior to experimentation at the Laboratory Animal Center of the School of Life Sciences, Sun Yat-sen University. Environmental conditions were maintained at 20°C-25°C, 55% ± 15% relative humidity, 12-h light/dark cycles, and 12 air changes per hour. Prior to experimentation, the animals were fasted overnight with water available ad libitum. All animals were healthy based on physical examination and laboratory analyses performed before and after the experiments. At the end of the experiments, the dogs were returned to the Laboratory Animal Center of School of Life Sciences, Sun Yat-sen University. […] All blood samples were transferred into heparin-treated centrifuge tubes and centrifuged for 10 min at 4,000 rpm and 4°C. All human urine samples were mixed and transferred (4 ml) into storage tubes. All biological samples were stored at -80°C. […] The optimal volume and activity in unit volume of enzyme solution [0.2 M acetic acid/water solution: 0.2 M ammonium acetate/water solution, 15:35 (v/v)] were determined through a pretest of the enzyme (rat plasma, 10 μl, 10 U μl^-1; dog plasma, 10 μl, 10 U μl^-1; human plasma, 20 μl, 20 U μl^-1; human urine, 10 μl, 10 U μl^-1). After enzyme incubation, 10 μl of IS solution was added to the plasma and urine samples (2 μg ml^-1 quercetin 3-β-D-glucoside for rat and dog plasma; 583 ng ml^-1 naringin-D4 and 160 ng ml^-1 naringenin-D4 for human plasma; and 9,710 ng ml^-1 naringin-D4 and 6,000 ng ml^-1 naringenin-D4 for human urine). To each fecal sample, 9-fold methanol-normal saline (2:1, v/v) was added, mixed (18,000 rpm, 15 min) by vortexing and centrifuged (10 min, 9,000 rpm, 4°C). Next, 10 μl IS solution (971 ng ml^-1 naringin-D4 and 600 ng ml^-1 naringenin-D4) was added to the supernatants of feces (200 μl) without enzyme incubation. […] The solid material was dissolved with acetonitrile-water (1:1, v/v) and injected into the ultra high-performance liquid chromatography coupled with triple quadrupole mass spectrometry (UHPLC/MS/MS) system as described below. The analysis of nonclinical and clinical samples was performed with a UHPLC/MS/MS system that consisted of a Shimadzu Nexera X2 ultra high-performance liquid chromatography (UHPLC) (Shimadzu Corp., Kyoto, Japan) coupled with an AB Sciex API4000 triple-quadrupole mass spectrometry (MS/MS) system (AB Sciex, Foster City, CA, USA) equipped with an electrospray ionization source and controlled by Analyst (v. 1.6.2) software. […] The injection volume was 10 μl with the flow rate of 0.3 ml min^-1 for plasma, and 0.4 ml min^-1 for urine and feces. The compounds were detected by multiple reaction monitoring in the negative ion electrospray mode. The electrospray source conditions were as follows: ion source gas1 30 psi, ion source gas2 60 psi, curtain gas 20 psi, collisionally activated dissociation (CAD) gas 8 psi, temperature 500°C, and ion spray voltage -4,500 V. Zero air was used for ion source gas1 and ion source gas2 and nitrogen for curtain gas and CAD gas. […] All pharmacokinetic and excretion parameters were expressed as mean ± standard deviation (SD). All mean and SD values were reported to three significant figures. The pharmacokinetic parameters were calculated using the Phoenix WinNonlin software (Version 6.4, Pharsight Corp., Cary, NC, USA) and compared using the Student's t-test (p < 0.05) in SPSS 18.0 (SPSS Inc., Chicago, IL, USA). […]

[3] = both sexes, Sprague Dawley, rat, plasma, iv, 42 mg/kg
[4] = both sexes, Sprague Dawley, rat, plasma, iv, 42 mg/kg, read-out: Cmax
[5] = both sexes, Sprague Dawley, rat, plasma, iv, 42 mg/kg, read-out: Vd
[6] = both sexes, Sprague Dawley, rat, plasma, po, 10.5 mg/kg
[7] = both sexes, Sprague Dawley, rat, plasma, po, 21 mg/kg
[8] = both sexes, Sprague Dawley, rat, plasma, po, 42 mg/kg
[9] = both sexes, Sprague Dawley, rat, plasma, po, 168 mg/kg
[10] = female, Sprague Dawley, rat, plasma, iv, 42 mg/kg
[11] = female, Sprague Dawley, rat, plasma, iv, 42 mg/kg, read-out: Cmax
[12] = female, Sprague Dawley, rat, plasma, po, 10.5 mg/kg
[13] = female, Sprague Dawley, rat, plasma, po, 21 mg/kg
[14] = female, Sprague Dawley, rat, plasma, po, 42 mg/kg
[15] = female, Sprague Dawley, rat, plasma, po, 168 mg/kg
[16] = male, Sprague Dawley, rat, plasma, iv, 42 mg/kg
[17] = male, Sprague Dawley, rat, plasma, iv, 42 mg/kg, read-out: Cmax
[18] = male, Sprague Dawley, rat, plasma, po, 10.5 mg/kg
[19] = male, Sprague Dawley, rat, plasma, po, 21 mg/kg
[20] = male, Sprague Dawley, rat, plasma, po, 42 mg/kg
[21] = male, Sprague Dawley, rat, plasma, po, 168 mg/kg
[22] = naringin 168 mg kg^-1 p.o. single dose, rat
[23] = naringenin after naringin 168 mg kg^-1 p.o. single dose, rat

C[C@@H]1O[C@@H](O[C@H]2[C@H](Oc3cc(O)c4c(c3)O[C@H](c3ccc(O)cc3)CC4=O)O[C@H](CO)[C@@H](O)[C@@H]2O)[C@H](O)[C@H](O)[C@H]1O [naringin, Naringin]
toxicity after a single p.o. bolus dose [1]: no apparent toxicity | AUC(0-inf) [2, 3]: 18100 ± 7550 ng·h/mL | AUC(0-t) [2, 3]: 18100 ± 7580 ng·h/mL | Tmax [2, 3]: 0.03 h | clearance [2, 3]: 48.3 mL/min/kg | half-life [2, 3]: 1.62 ± 1.18 h | Cmax [2, 4]: 88500 ± 51000 ng/mL | MRT last [2, 3]: 0.496 ± 0.382 h | MRT inf [2, 3]: 0.57 ± 0.476 h | Vd [2, 5]: 8.29 ± 10 L/kg | half-life ([2]; both sexes, Sprague Dawley, rat, plasma, po): < 1 h | AUC(0-inf) [2, 6]: 35.7 ± 29.3 ng·h/mL | AUC(0-t) [2, 6]: 32.7 ± 27.7 ng·h/mL | Tmax [2, 6]: 1.5 ± 2.35 h | half-life [2, 6]: 0.328 ± 0.275 h | Cmax ([2]; both sexes, Sprague Dawley, rat, plasma, po, 10.5 mg/kg, read-out: Cmax): 31.7 ± 13.2 ng/mL | MRT last [2, 6]: 0.741 ± 0.423 h | MRT inf [2, 6]: 1.22 ± 0.297 h | AUC(0-inf) [2, 7]: 38.4 ± 21.4 ng·h/mL | AUC(0-t) [2, 7]: 34.2 ± 20.3 ng·h/mL | Tmax [2, 7]: 1.53 ± 2.36 h | half-life [2, 7]: 0.5 ± 0.493 h | Cmax ([2]; both sexes, Sprague Dawley, rat, plasma, po, 21 mg/kg, read-out: Cmax): 30.5 ± 16.3 ng/mL | MRT last [2, 7]: 1.18 ± 0.399 h | MRT inf [2, 7]: 1.42 ± 0.621 h | AUC(0-inf) [2, 8]: 45.1 ± 55.4 ng·h/mL | AUC(0-t) [2, 8]: 40.7 ± 51.3 ng·h/mL | Tmax [2, 8]: 1.18 ± 1.78 h | half-life [2, 8]: 0.463 ± 0.598 h | Cmax ([2]; both sexes, Sprague Dawley, rat, plasma, po, 42 mg/kg, read-out: Cmax): 52.6 ± 78.8 ng/mL | MRT last [2, 8]: 1.1 ± 0.381 h | MRT inf [2, 8]: 1.24 ± 0.292 h | AUC(0-inf) [2, 9]: 145 ± 66.4 ng·h/mL | AUC(0-t) [2, 9]: 140 ± 66.3 ng·h/mL | Tmax [2, 9]: 2.85 ± 4.06 h | half-life [2, 9]: 0.738 ± 0.781 h | MRT last [2, 9]: 2.01 ± 0.451 h | MRT inf [2, 9]: 1.96 ± 1.08 h | Tmax ([2]; both sexes, Sprague Dawley, rat, plasma, po, rats, nonclinical p.o. administration studies overall): 1.77 ± 2.64 h | AUC(0-inf) [2, 10]: 14800 ± 7280 ng·h/mL | AUC(0-t) [2, 10]: 14800 ± 7290 ng·h/mL | Tmax [2, 10]: 0.03 h | half-life [2, 10]: 1.6 ± 0.972 h | Cmax [2, 11]: 70200 ± 60000 ng/mL | AUC(0-inf) [2, 12]: 34.6 ± 31.9 ng·h/mL | AUC(0-t) [2, 12]: 31.9 ± 29.9 ng·h/mL | Tmax [2, 12]: 1.05 ± 0.622 h | half-life [2, 12]: 0.465 ± 0.344 h | Cmax ([2]; female, Sprague Dawley, rat, plasma, po, 10.5 mg/kg, read-out: Cmax): 27.2 ± 11.2 ng/mL | AUC(0-inf) [2, 13]: 51.9 ± 15.7 ng·h/mL | AUC(0-t) [2, 13]: 47 ± 15.6 ng·h/mL | Tmax [2, 13]: 1.55 ± 2.49 h | half-life [2, 13]: 0.675 ± 0.57 h | Cmax ([2]; female, Sprague Dawley, rat, plasma, po, 21 mg/kg, read-out: Cmax): 31.1 ± 16 ng/mL | AUC(0-inf) [2, 14]: 15.3 ± 11.6 ng·h/mL | AUC(0-t) [2, 14]: 13.3 ± 10.3 ng·h/mL | Tmax [2, 14]: 1.7 ± 2.42 h | half-life [2, 14]: 0.55 ± 0.813 h | Cmax ([2]; female, Sprague Dawley, rat, plasma, po, 42 mg/kg, read-out: Cmax): 12.6 ± 9.42 ng/mL | AUC(0-inf) [2, 15]: 142 ± 52.4 ng·h/mL | AUC(0-t) [2, 15]: 137 ± 50.7 ng·h/mL | Tmax [2, 15]: 1.95 ± 3.39 h | half-life [2, 15]: 0.85 ± 0.854 h | Cmax ([2]; female, Sprague Dawley, rat, plasma, po, 168 mg/kg, read-out: Cmax): 95.8 ± 54.4 ng/mL | AUC(0-inf) [2, 16]: 21400 ± 6930 ng·h/mL | AUC(0-t) [2, 16]: 21300 ± 7030 ng·h/mL | Tmax [2, 16]: 0.03 h | half-life [2, 16]: 1.65 ± 1.48 h | Cmax [2, 17]: 106000 ± 37600 ng/mL | AUC(0-inf) [2, 18]: 36.9 ± 30.2 ng·h/mL | AUC(0-t) [2, 18]: 33.5 ± 28.8 ng·h/mL | Tmax [2, 18]: 1.95 ± 3.4 h | half-life [2, 18]: 0.19 ± 0.063 h | Cmax ([2]; male, Sprague Dawley, rat, plasma, po, 10.5 mg/kg, read-out: Cmax): 36.1 ± 14.9 ng/mL | AUC(0-inf) [2, 19]: 24.8 ± 18 ng·h/mL | AUC(0-t) [2, 19]: 21.4 ± 16.5 ng·h/mL | Tmax [2, 19]: 1.5 ± 2.52 h | half-life [2, 19]: 0.325 ± 0.381 h | Cmax ([2]; male, Sprague Dawley, rat, plasma, po, 21 mg/kg, read-out: Cmax): 29.9 ± 18.5 ng/mL | AUC(0-inf) [2, 20]: 74.9 ± 67.6 ng·h/mL | AUC(0-t) [2, 20]: 68.1 ± 62.7 ng·h/mL | Tmax [2, 20]: 0.65 ± 0.762 h | half-life [2, 20]: 0.375 ± 0.354 h | Cmax ([2]; male, Sprague Dawley, rat, plasma, po, 42 mg/kg, read-out: Cmax): 92.7 ± 99.4 ng/mL | AUC(0-inf) [2, 21]: 149 ± 84.3 ng·h/mL | AUC(0-t) [2, 21]: 144 ± 80.3 ng·h/mL | Tmax [2, 21]: 3.75 ± 4.85 h | half-life [2, 21]: 0.625 ± 0.781 h | Cmax ([2]; male, Sprague Dawley, rat, plasma, po, 168 mg/kg, read-out: Cmax): 113 ± 102 ng/mL | Vd ([2]; naringin 10.5 mg kg^-1 p.o. single dose, rat): 174 ± 98.3 L/kg | Vd ([2]; naringin 21 mg kg^-1 p.o. single dose, rat): 322 ± 239 L/kg | Vd ([2]; naringin 42 mg kg^-1 p.o. single dose, rat): 586 ± 394 L/kg | Cmax [2, 22]: 104 ± 77.5 ng/mL | Vd [2, 22]: 639 ± 657 L/kg

O=C1C[C@@H](c2ccc(O)cc2)Oc2cc(O)cc(O)c21 [naringenin, Naringenin]
AUC(0-inf) [2, 3]: 2390 ± 1110 ng·h/mL | AUC(0-t) [2, 3]: 2360 ± 1120 ng·h/mL | Tmax [2, 3]: 0.04 ± 0.021 h | clearance [2, 3]: 390 mL/min/kg | half-life [2, 3]: 2.45 ± 1.38 h | Cmax [2, 4]: 3980 ± 2510 ng/mL | MRT last [2, 3]: 3.36 ± 2.11 h | MRT inf [2, 3]: 3.66 ± 2.14 h | Vd [2, 5]: 88.3 ± 113 L/kg | half-life ([2]; both sexes, Sprague Dawley, rat, plasma, oral, naringenin in rats, studies overall): 2.31 ± 1.21 h | Tmax [2, 10]: 0.043 ± 0.025 h | half-life [2, 10]: 2.91 ± 1.87 h | Cmax [2, 11]: 2430 ± 1550 ng/mL | AUC(0-inf) [2, 16]: 3010 ± 982 ng·h/mL | AUC(0-t) [2, 16]: 2990 ± 986 ng·h/mL | Cmax [2, 17]: 5540 ± 2400 ng/mL | CL [2, 23]: 327 ± 288 mL/min/kg | Vd [2, 23]: 93.4 ± 121 L/kg | lag-time in plasma ([2]; rats, after p.o. naringin): 0.701 ± 0.523 h | time for concentrations to increase to Cmax after the lag-time ([2]; rats, after p.o. naringin): 2.93 ± 2.01 h
